Test results from US5716950A, “Diazacycloalkanealkylsulfonamide derivatives” (Nippon Shoji Kabushiki Kaisha, priority 1994, dated 1998).
Like-named read-outs stand apart in the source and are kept apart here.

Experiments:
[1] = test system: male ICR mice; assay: Toxicity Test (mouse acute toxicity, minimum lethal dose); format: in vivo; details: po, observed for 24 hours, head prints (10 mg/kg-po)
Text: The test compounds were orally administered to male ICR mice (weighing to 30 g) after fasting overnight. […] The results were expressed by minimum lethal dose. Toxicity of any compounds of the present invention were weaker than that of ketotifen which was a reference compound.

[2] = test system: extracted ileum (histamine contraction); assay: Antihistaminic activity: suppression of histamine-induced contraction of extracted ileum; design: species or system Female Hartley guinea pig; details: histamine 3×10^-7 M; guinea pig ileum; 50% suppression of contraction; read-out: anti-His in extracted ileum EC50
Description: Female Hartley guinea pig (weighing 500 to 650 g) were sacrificed and the ileum (length of about 10 to 25 cm) was extracted from the ileocecum to prepare a specimen (length of 3 cm). […] After allowing to stand for 60 minutes to make the specimen stable, a histamine (3×10^-7 M) was applied to the specimen at single application. Contraction of the specimen was determined and recorded using isotonic transducer. After repeating application of a histamine to make the contraction constant, a diluted solution of the test compound was applied. Three minutes after the application, a histamine was then added and an activity of suppressing contraction was examined.

[3] = test system: passive cutaneous anaphylaxis (PCA); assay: Activity of suppressing passive cutaneous anaphylaxis (PCA); format: in vivo, Male Wistar rats; details: Rattus norvegicus, po, 1 h, 10 mg/kg-po, 1 hour before antigen challenge; read-out: % suppression of rat PCA
Description: Test compounds were examined on their antiallergic activities. […] After 48 hours, 1.0 ml of 0.5 % Evans Blue saline solution containing DNP.BSA (1 mg in protein) was injected through the tail vein to induce allergic reaction. After 30 minutes, the rats were sacrificed by bleeding and the skin of back where dye was leaked out was flayed and put it into 20 ml test tube with ground stopper. Thereto was added 1.0 ml of 1N KOH aqueous solution and then it was allowed to stand at 37° C. in incubator overnight for lysing. To this solution was added 8.3 ml of a mixture of acetone and 0.6N phosphoric acid (13:5) and the mixture was mixed well and then was filtered to remove the insoluble materials.
The test compounds were administered orally 1 hour before the antigen challenge. Suppression rate was expressed by percentage to the value in control where 0.5% aqueous methylcellulose solution was orally administered.

[4] = test system: mouse biphasic allergic dermal reaction; assay: Mouse Biphasic Allergic Dermal Reaction; format: in vivo, Female Balb/c mice; details: for inhibition in vivo at 0.1 mg/kg / inhibition in vivo at 1 mg/kg: Mus musculus, oral; for suppression of the late allergic reaction (in words): edema after 24 hours
Description: Female Balb/c mice (weighing 18 to 25 g) were subjected to passive sensitization by intravenous administration of 1 ml of anti-DNP monoclonal IgE antibody showing 1:1024 of antibody titer. 24 hours after the sensitization, 25 μl of 0.15% dinitrofluorobenzene (DNFB) were applied to both sides of right and left auricles of mouse for inducing allergic reactions. Thickness of auricles were measured using Dial Thickness Gauge before the challenge with DNFB, and 1 and 24 hours after the challenge. And then, increase in thickness of auricles at 1 hour after the challenge (edema caused by immediate allergic reaction) and that at 24 hours after the challenge (edema caused by late allergic reaction) were calculated against the thickness of auricles before the challenge with DNFB, respectively.
Suppression rate was expressed by relative ratio (%) to the value in control in which a solvent was administered.
Test compounds, diphenhydramine which is a existing classical antihistamic drug, amlexanox which is an antiallergic drug and dexamethasone which is a steroidal drug were administered orally (partly intraperitoneally) once before antigen challenge.
The above test was performed by using a mouse biphasic allergic dermal reaction model which was a new model [see, Sakurai T, Inagaki, N. and Nagai, H Life Sci., 54, PL291-295 (1994)]. In this model, the immediate allergic reaction was induced by mediator release from mast cell at 1 hour after the challenge, and the late allergic reaction with inflammatory cells such as eosinophil (edema after 24 hours) was induced after 24 hours from the challenge.

[5] = 1 h, read-out: immediate edema (1 hr) suppression (%)
[6] = 24 h, read-out: late edema (24 hr) suppression (%)

Structure (SMILES)	mouse acute toxicity (lethal dose) [1]	EC50 [2]	inhibition in vivo at 10 mg/kg [3]	inhibition in vivo at 0.1 mg/kg [4, 5]	inhibition in vivo at 1 mg/kg [4, 5]	inhibition in vivo at 0.1 mg/kg [4, 6]	inhibition in vivo at 1 mg/kg [4, 6]	suppression of the late allergic reaction (in words) [4]
CCNS(=O)(=O)CCCCCCN1CCN(C(c2ccccc2)c2ccc(Cl)cc2)CC1 (centres unmarked) [Example 29]	> 500 mg/kg	750 nM	95.7%					
CCNS(=O)(=O)CCCCCN1CCN(C(c2ccc(F)cc2)c2ccccn2)CC1 (centres unmarked) [Example 31]	> 500 mg/kg	770 nM	87.2%					
CCNS(=O)(=O)CCCCCCN1CCN(C(c2ccc(F)cc2)c2ccccn2)CC1 (centres unmarked) [Example 32]	> 500 mg/kg	840 nM	86.8%					
CCCNS(=O)(=O)CCCCCCN1CCN(C(c2ccc(F)cc2)c2ccccn2)CC1 (centres unmarked) [Example 39]	> 500 mg/kg	810 nM	83.8%					
CCCNS(=O)(=O)CCCCCCCCCCN1CCN(C(c2ccc(F)cc2)c2ccccn2)CC1 (centres unmarked) [Example 42]	> 500 mg/kg	330 nM	80.2%					
CC(C)NS(=O)(=O)CCCCCCN1CCN(C(c2ccccc2)c2ccc(Cl)cc2)CC1 (centres unmarked) [Example 43]	> 500 mg/kg	690 nM	86.5%					
CC(C)NS(=O)(=O)CCCCCN1CCN(C(c2ccc(F)cc2)c2ccccn2)CC1 (centres unmarked) [Example 45]	> 500 mg/kg	740 nM	84%					
CC(C)NS(=O)(=O)CCCCCCCCN1CCN(C(c2ccc(F)cc2)c2ccccn2)CC1 (centres unmarked) [Example 48]	> 500 mg/kg	350 nM	83.8%					
O=S(=O)(CCCCCCN1CCN(C(c2ccccc2)c2ccc(Cl)cc2)CC1)NC1CC1 (centres unmarked) [Example 54]	> 500 mg/kg	420 nM	89.2%	19%	52.4%	37%	51.9%	showed strong activity of suppressing the late allergic reaction
O=S(=O)(CCCCCCN1CCN(C(c2ccc(F)cc2)c2ccccn2)CC1)NC1CC1 (centres unmarked) [Example 56]	> 500 mg/kg	440 nM	94.5%		15.8%	3.8%	34.6%	showed strong activity of suppressing the late allergic reaction
O=S(=O)(CCCCCCN1CCN(C(c2ccccc2)c2ccc(Cl)cc2)CC1)NC1CCCC1 (centres unmarked) [Example 59]	> 500 mg/kg	2900 nM	96.4%					
O=S(=O)(CCCCCCN1CCN(C(c2ccc(F)cc2)c2ccccn2)CC1)NC1CCCC1 (centres unmarked) [Example 61]	> 500 mg/kg	310 nM	89.7%	5%		37%	44.4%	showed strong activity of suppressing the late allergic reaction
CN(C)S(=O)(=O)CCCCCCN1CCN(C(c2ccccc2)c2ccc(Cl)cc2)CC1 (centres unmarked) [Example 64]	> 500 mg/kg	360 nM	72.5%					
CN(C)S(=O)(=O)CCCCCCN1CCN(C(c2ccc(F)cc2)c2ccc(F)cc2)CC1 [Example 65]	> 500 mg/kg	430 nM	74.7%					
CN(C)S(=O)(=O)CCCCCCN1CCN(C(c2ccncc2)c2ccc(Cl)cc2)CC1 (centres unmarked) [Example 66]	> 500 mg/kg	420 nM	82.8%					
CN(C)S(=O)(=O)CCCCCCN1CCN(C(c2ccccc2)c2ccccn2)CC1 (centres unmarked) [Example 67]	> 500 mg/kg	420 nM	84.1%					

Structure (SMILES)	mouse acute toxicity (lethal dose) [1]	EC50 [2]	inhibition in vivo at 10 mg/kg [3]	inhibition in vivo at 0.1 mg/kg [4, 5]	inhibition in vivo at 1 mg/kg [4, 5]	inhibition in vivo at 0.1 mg/kg [4, 6]	inhibition in vivo at 1 mg/kg [4, 6]	suppression of the late allergic reaction (in words) [4]
CN(C)S(=O)(=O)CCCCCCCCN1CCN(C(c2ccccc2)c2ccccc2F)CC1 (centres unmarked) [Example 69]	> 500 mg/kg	150 nM	88.3%					
COc1cc(NS(=O)(=O)CCCCCCN2CCN(C(c3ccccc3)c3ccccc3)CC2)cc(OC)c1OC [Example 99]	> 500 mg/kg	1300 nM	72.1%					
O=S(=O)(CCCCCCN1CCN(C(c2ccccc2)c2ccc(Cl)cc2)CC1)NCCO (centres unmarked) [Example 101]	> 500 mg/kg	810 nM	88%					
NS(=O)(=O)CCCCCCCCCCN1CCN(C(c2ccccc2)c2ccc(Cl)cc2)CC1 (centres unmarked) [Example 104]	> 500 mg/kg	6800 nM	86.7%					
CCNS(=O)(=O)CCCCCCCCN1CCN(C(c2ccccc2)c2ccc(Cl)cc2)CC1 (centres unmarked) [Example 108]	> 500 mg/kg	680 nM	82.2%					
O=S(=O)(CCCCCCCN1CCN(C(c2ccccc2)c2ccc(Cl)cc2)CC1)NC1CC1 (centres unmarked) [Example 115]	> 500 mg/kg	790 nM	73.2%					
O=S(=O)(CCCCCCCCN1CCN(C(c2ccccc2)c2ccc(Cl)cc2)CC1)NC1CC1 (centres unmarked) [Example 116]	> 500 mg/kg	120 nM	70.2%					
O=S(=O)(CCCCCCN1CCN(C(c2ccccc2)c2cccc(Cl)c2)CC1)NC1CC1 (centres unmarked) [Example 120]	> 500 mg/kg	700 nM	93.4%	26.1%	56.5%	7.1%	25%	showed strong activity of suppressing the late allergic reaction
O=S(=O)(CCCCCCN1CCN(C(c2ccccc2)c2ccc(F)cc2)CC1)NC1CC1 (centres unmarked) [Example 124]	> 500 mg/kg	200 nM	88.4%					
O=S(=O)(CCCCCCN1CCN(C(c2ccccc2)c2ccc(Cl)cc2)CC1)NC1CCC1 (centres unmarked) [Example 128]	> 500 mg/kg	320 nM	86.1%	32%	28%	36%	40%	showed strong activity of suppressing the late allergic reaction
O=S(=O)(CCCCCCCN1CCN(C(c2ccccc2)c2ccc(Cl)cc2)CC1)NC1CCC1 (centres unmarked) [Example 129]	> 500 mg/kg	1800 nM	92.2%					
O=S(=O)(CCCCN1CCN(C(c2ccccc2)c2ccc(Cl)cc2)CC1)NC1CCCC1 (centres unmarked) [Example 135]	> 500 mg/kg	1100 nM	74.4%					
O=S(=O)(CCCCCN1CCN(C(c2ccccc2)c2ccc(Cl)cc2)CC1)NC1CCCC1 (centres unmarked) [Example 136]	> 500 mg/kg	540 nM	80.2%					
O=S(=O)(CCCCCCCN1CCN(C(c2ccccc2)c2ccc(Cl)cc2)CC1)NC1CCCC1 (centres unmarked) [Example 137]	> 500 mg/kg	2200 nM	75.8%					
CN(C)S(=O)(=O)CCCCCCCN1CCN(C(c2ccccc2)c2ccc(Cl)cc2)CC1 (centres unmarked) [Example 150]	> 500 mg/kg	350 nM	89.1%					
